Data: the CheMixHub ionic liquid set
“And” between values parts separate entries of the source, which are not always exact repeats. Identical values can stand only once.

Assay: xn = mol fraction of the nth substance listed

Cc1ncc[nH]1 + CC[n+]1ccn(C)c1.[Cl-]
101.33 kPa, x2 = 0.667
Settings	viscosity [mPa·s]
303.15 K	394
313.15 K	182.1
323.15 K	101.5
333.15 K	57.3
343.15 K	38
353.15 K	27

CCC(=O)OC + O=S(=O)([N-]S(=O)(=O)C(F)(F)F)C(F)(F)F.[Li+]
298.1 K, 100 kPa, x2 = 0.333
Settings	electrical conductivity [S/m]	viscosity [mPa·s]
–	0.23	21.6

CCCCCCCCCCOS(=O)(=O)[O-].CC[n+]1ccn(C)c1 + O
101 kPa, frequency 0.0005 MHz, x1 = 0.075
Settings	electrical conductivity [S/m]
308.15 K	2.87
363.15 K	6.86

CCO + CC[n+]1ccccc1.N#C[N-]C#N
Settings	viscosity [mPa·s]
288.15 K, 100 kPa, x1 = 1	1.29

CCCC[N+](CCCC)(CCCC)Cc1ccccc1.[Cl-] + CC(C)[C@H](N)C(=O)O + O
101 kPa
Settings	electrical conductivity, 298.15 K [S/m]	electrical conductivity, 303.15 K [S/m]	electrical conductivity, 308.15 K [S/m]	viscosity, 298.15 K [mPa·s]	viscosity, 303.15 K [mPa·s]	viscosity, 308.15 K [mPa·s]
x2 = 1.802e-05, x1 = 1.802e-05	0.0145	0.0163	0.0169	–	0.825	0.704
x2 = 1.804e-05, x1 = 5.406e-05	0.0303	0.0313	0.0331	–	–	–
x2 = 1.805e-05, x1 = 9.009e-05	0.0341	0.0371	0.0391	–	–	–
x2 = 4.506e-05, x1 = 1.802e-05	0.0166	0.0172	0.0185	–	0.838	0.719
x2 = 4.509e-05, x1 = 5.405e-05	0.0312	0.0322	0.0342	–	–	–
x2 = 4.511e-05, x1 = 9.009e-05	0.0353	0.0383	0.0406	1.296	–	–
x2 = 7.21e-05, x1 = 1.802e-05	0.0185	0.0193	0.0209	–	0.851	0.733
x2 = 7.214e-05, x1 = 5.405e-05	0.0325	0.0335	0.0356	1.273	–	–
x2 = 7.218e-05, x1 = 9.009e-05	0.0365	0.0394	0.0421	–	–	–
x2 = 9.913e-05, x1 = 1.802e-05	0.0205	0.0215	0.0234	–	0.864	0.748
x2 = 9.919e-05, x1 = 5.405e-05	0.0338	0.0346	0.0363	1.288	–	–
x2 = 9.925e-05, x1 = 9.008e-05	0.0379	0.0409	0.0435	–	1.165	–
x2 = 0.0001262, x1 = 1.802e-05	0.0222	0.0236	0.0249	–	0.878	0.763
x2 = 0.0001262, x1 = 5.405e-05	0.0347	0.0357	0.0377	–	–	–
x2 = 0.0001263, x1 = 9.008e-05	0.0391	0.0421	0.0447	–	–	–
x2 = 0.0001532, x1 = 1.802e-05	0.0235	0.0251	0.0266	–	–	0.779
x2 = 0.0001533, x1 = 5.405e-05	0.0356	0.0368	0.0389	–	–	–
x2 = 0.0001534, x1 = 9.008e-05	0.0407	0.0435	0.0463	–	–	–

CC[n+]1ccn(C)c1.CO[PH](=O)[O-] + CS(C)=O
298.1 K, 100 kPa
Settings	electrical conductivity
x1 = 0.006	0.01 S/m
x1 = 0.01	0.13 S/m
x1 = 0.017	0.37 S/m and 0.45 S/m
x1 = 0.025	0.51 S/m and 0.68 S/m
x1 = 0.044	0.79 S/m
x1 = 0.059	0.93 S/m
x1 = 0.078	1.05 S/m
x1 = 0.123	1.15 S/m
x1 = 0.188	1.19 S/m
x1 = 0.267	1.13 S/m
x1 = 0.335	1.03 S/m
x1 = 0.453	0.88 S/m
x1 = 0.585	0.75 S/m
x1 = 0.763	0.59 S/m
x1 = 1	0.44 S/m

CC(=O)[O-].CC[NH2+]CC + CS(C)=O
101 kPa
Settings	electrical conductivity [S/m]	viscosity [mPa·s]
298.15 K, x1 = 0.0079	0.066	–
298.15 K, x1 = 0.0285	0.157	–
298.15 K, x1 = 0.0475	0.217	–
298.15 K, x1 = 0.0697	0.282	–
298.15 K, x1 = 0.0998	0.348	–
298.15 K, x1 = 0.1	–	2.99
298.15 K, x1 = 0.199	–	3.72
298.15 K, x1 = 0.1997	0.44	–
298.15 K, x1 = 0.299	–	5.59
298.15 K, x1 = 0.3011	0.492	–
298.15 K, x1 = 0.3994	0.531	–
298.15 K, x1 = 0.4	–	8.01
298.15 K, x1 = 0.5	–	11.94
298.15 K, x1 = 0.5008	0.459	–
298.15 K, x1 = 0.601	–	15.88
298.15 K, x1 = 0.6022	0.433	–
298.15 K, x1 = 0.682	–	21.1
298.15 K, x1 = 0.7005	0.394	–
298.15 K, x1 = 0.798	–	32.6
298.15 K, x1 = 0.8019	0.367	–
298.15 K, x1 = 0.899	–	44.2
298.15 K, x1 = 0.9017	0.335	–
298.15 K, x2 = 0.005	–	58.3
298.15 K, x2 = 0.2023	–	13.67
298.15 K, x2 = 0.2814	–	12.66
298.15 K, x2 = 0.5897	–	8.7
298.15 K, x2 = 0.66	–	7.71
298.15 K, x2 = 0.7851	–	5.81
298.15 K, x2 = 0.971	–	2.53
303.15 K, x2 = 0.0253	–	13.36
303.15 K, x2 = 0.7253	–	5.92
303.15 K, x2 = 0.8406	–	4.41
303.15 K, x2 = 0.9248	–	3.13
308.15 K, x2 = 0.1535	–	10.52
308.15 K, x2 = 0.2814	–	9.46

CCCCCCCC[N+](CC)(CC)CC.O=S(=O)([N-]S(=O)(=O)C(F)(F)F)C(F)(F)F + O
101 kPa, x2 = 0.1435
Settings	viscosity
318.05 K	36.51 mPa·s and 55.8 mPa·s
323.05 K	29.74 mPa·s
